Results from US5288726A, “Tetrahydrothienopyridine derivatives, furo and pyrrolo analogs thereof and their preparation and uses for inhibiting blood platelet aggregation” (Ube Industries Limited, priority 1991, dated 1994).

System: blood platelet aggregation
Assay: Inhibition of blood platelet aggregation (ex vivo, ADP or collagen induced, rats dosed orally)
Assay type: in vivo, rat (SD strain, female)
Settings: rat, oral, 4 hours before test, ADP or collagen (inducer not given), read-out: % Inhibition of blood platelet aggregation (Test Ex. 2)
Description: Inhibition of Blood Platelet Aggregation Female rats of the SD strain (supplied by Japan Charles River Inc.) were divided into groups of 4 each for the test. […] As a control, a 5% w/v aqueous solution of gum arabic was administered to a control group of rats, without any test drug. Blood platelet aggregation was tested according to the method of P. Lumley and P. P. A. Humphrey [J. Pharmacol. Methods 6, 153-166 (1981)]with a partial modification. […] The blood platelet aggregation rate was calculated from the following equation. […] The inhibitory effect was calculated as the percent inhibition of the treated groups as compared with the control groups.

SMILES | inhibition at 30 mg/kg (30 mg/kg (footnote *)) [%] | inhibition at 3 mg/kg [%] | inhibition at 10 mg/kg [%] | inhibition at 1 mg/kg [%]
Clc1ccccc1CN1CCc2sccc2C1 [Compound A, 5 (2-chlorobenzyl)-4,5,6,7-tetrahydrothieno[3,2-c]pyridine, reference compound] | 3.7 | – | – | –
COC(=O)C(c1ccccc1Cl)N1CCc2sccc2C1 (stereo not drawn) [Compound B, 5-(2-chloro-α-methoxycarbonylbenzyl) 4,5,6,7-tetrahydrothieno[3,2-c]pyridine, reference compound] | – | 25.7 | 98.8 | –
CCC(=O)C(c1ccccc1F)N1CCc2sccc2C1 (stereo not drawn) [Compound No. 19, 5-(2-Fluoro-α-propionylbenzyl)-4,5,6,7-tetrahydrothieno[3,2-c]pyridine] | – | 29.3 | 97.8 | –
O=C(C1CC1)C(c1ccccc1F)N1CCc2sccc2C1 (stereo not drawn) [Compound No. 59, 5-(α-Cyclopropylcarbonyl-2-fluorobenzyl)-4,5,6,7-tetrahydrothieno[3,2-c]pyridine] | – | 98.1 | – | 57.1
O=C(C1CC1)C(c1ccccc1Cl)N1CCc2sccc2C1 (stereo not drawn) [Compound No. 60, 5-(2-Chloro-α-cyclopropylcarbonylbenzyl)-4,5,6,7-tetrahydrothieno[3,2-c]pyridine] | – | 74.2 | 100 | –
CC(=O)Oc1cc2c(s1)CCN(C(C(=O)C1CC1)c1ccccc1F)C2 (stereo not drawn) [Compound No. 190, 2-Acetoxy-5-(α-cyclopropylcarbonyl-2-fluorobenzyl)4,5,6,7-tetrahydrothieno[3,2-c]pyridine] | – | – | – | 100
CCCC(=O)Oc1cc2c(s1)CCN(C(C(=O)C1CC1)c1ccccc1F)C2 (stereo not drawn) [Compound No. 194, 2-Butyryloxy-5-(α-cyclopropylcarbonyl-2-fluorobenzyl)4,5,6,7-tetrahydrothieno[3,2-c]pyridine] | – | – | – | 100
CC(C)(C)C(=O)Oc1cc2c(s1)CCN(C(C(=O)C1CC1)c1ccccc1F)C2 (stereo not drawn) [Compound No. 196, 5-(α-Cyclopropylcarbonyl-2-fluorobenzyl)-2-pivaloyloxy-4,5,6,7-tetrahydrothieno[3,2-c]pyridine] | – | – | – | 97.6
O=C1C=C2CN(C(C(=O)C3CC3)c3ccccc3Cl)CCC2S1 (stereo not drawn) [Compound No. 233, 5-(2-Chloro-α-cyclopropylcarbonylbenzyl)-2-oxo-2,4,5,6,7,7a-hexahydrothieno[3,2-c]pyridine] | – | – | 98.9 | –
O=C1C=C2CN(C(C(=O)C3CC3)c3ccccc3F)CCC2S1 (stereo not drawn) [Compound No. 235, 5-(α-Cyclopropylcarbonyl-2-fluorobenzyl)-2-oxo-2,4,5,6,7,7a-hexahydrothieno[3,2-c]pyridine] | – | – | – | 98.8
